# According to ChEMBL document CHEMBL1154016, “An efficient synthesis and biological study of novel indolyl-1,3,4-oxadiazoles as potent anticancer agents” (Bioorg Med Chem Lett, 2009):
# Key:
# [1] = test system: PC-3; assay: Cytotoxicity against human PC3 cells by MTT assay; assay type: functional, cell-based
# [2] = test system: MCF7; assay: Cytotoxicity against human MCF7 cells by MTT assay; assay type: functional, cell-based
# [3] = test system: MIA PaCa-2; assay: Cytotoxicity against human MIAPaCa2 cells by MTT assay; assay type: functional, cell-based
# [4] = test system: MDA-MB-231; assay: Cytotoxicity against human MDA-MB-231 cells by MTT assay; assay type: functional, cell-based
# [5] = test system: DU-145; assay: Cytotoxicity against human DU145 cells by MTT assay; assay type: functional, cell-based
# [6] = test system: LNCaP; assay: Cytotoxicity against human LNCAP cells by MTT assay; assay type: functional, cell-based
# [7] = test system: MCF7; assay: Selectivity ratio of IC50 for human MIAPaCa2 cells to IC50 for human MCF7 cells; assay type: functional
Structure (SMILES),IC50 [1] [µM],IC50 [2] [µM],IC50 [3] [µM],IC50 [4] [µM],IC50 [5] [µM],IC50 [6] [µM],Ratio IC50 [7]
Clc1ccc(-c2nnc(-c3c[nH]c4ccccc34)o2)cc1,41.6,48.2,6460,> 1000,192,583,–
COc1cc(-c2nnc(-c3c[nH]c4ccccc34)o2)ccc1OCc1ccccc1,> 1000,> 1000,> 1000,> 1000,> 1000,> 1000,–
c1ccc(-c2nnc(-c3c[nH]c4ccccc34)o2)cc1,> 1000,388,> 1000,> 1000,> 1000,> 1000,–
COc1ccc(-c2nnc(-c3c[nH]c4ccccc34)o2)cc1,> 1000,> 1000,> 1000,> 1000,> 1000,> 1000,–
COc1cc(-c2nnc(-c3c[nH]c4ccccc34)o2)ccc1O,> 1000,> 1000,> 1000,> 1000,> 1000,> 1000,–
c1ccc2c(-c3nnc(-c4ccncc4)o3)c[nH]c2c1,4.1,1,1.6,> 1000,20.4,10,–
Cc1nnc(-c2c[nH]c3ccccc23)o1,> 1000,198,145,> 1000,> 1000,> 1000,–
COc1ccc(-c2nnc(-c3c[nH]c4ccccc34)o2)c(OC)c1OC,> 1000,121,> 1000,> 1000,> 1000,> 1000,–
FC(F)(F)c1nnc(-c2c[nH]c3ccccc23)o1,> 1000,> 1000,> 1000,> 1000,> 1000,> 1000,–
c1cncc(-c2nnc(-c3c[nH]c4ccccc34)o2)c1,711,5.4,0.9,> 1000,170,69.4,–
c1ccc(Cc2nnc(-c3c[nH]c4ccccc34)o2)cc1,> 1000,39.2,934,> 1000,> 1000,> 1000,24
COc1ccc(-c2nnc(-c3c[nH]c4ccccc34)o2)cc1OC,> 1000,557,> 1000,> 1000,> 1000,> 1000,–
COc1cc(-c2nnc(-c3cn(C)c4ccccc34)o2)ccc1OCc1ccccc1,> 1000,35.2,1.4,> 1000,> 1000,> 1000,–
